Target: P-glycoprotein 1 and 3 (MDR1a/MDR1b) (Mus musculus, UniProt P21447+P06795)
Experiment: TP_TRANSPORTER: decrease in biliary excretion in mdr1a/1b(-/-) mouse
Format: functional, organism-based, Bile
Settings: in vivo

Activity: substrate [+]
Compound: CCc1c2c(nc3ccc(OC(=O)N4CCC(N5CCCCC5)CC4)cc13)-c1cc3c(c(=O)n1C2)COC(=O)[C@]3(O)CC [IRINOTECAN]

— ChEMBL document CHEMBL2073831, “Biliary transport of irinotecan and metabolites in normal and P-glycoprotein-deficient mice” (Cancer Chemother Pharmacol, 2002)
